Assay results published in publication PMC7096397, “Improving the drug-likeness of inspiring natural products - evaluation of the antiparasitic activity against Trypanosoma cruzi through semi-synthetic and simplified analogues of licarin A” (Scientific Reports, 2020).
Like-named read-outs stand apart in the source and are kept apart here.

Columns and labels:
[1] = PAMPA intestinal model (GIT); format: in vitro ADME
Description: Intestinal permeability of tested compounds was estimated applying the PAMPA model previously developed and validated. Briefly, stock solutions were prepared in dimethyl sulfoxide (DMSO) at the concentrations of 10 mM and then diluted with Tris buffer to give the final concentration donor solution at 300 µM and 5% DMSO. The assay procedure was initiated by filling each well of the microtiter plate (MultiScreen, catalogue no. MATRNPS50, Millipore Corporation, Bedford, MA, USA) with 300 μL of each donor drug solution. Carefully, and avoiding the pipette tip contact with the filter, the hydrophobic filter (0.45 μm) of each acceptor well of the 96-well microfilter plate (MultiScreen-IP, catalogue no. MAIPNTR10, Millipore Corporation, Bedford, MA, USA) was adsorbed with 6 μL of the artificial lipid solution which was composed of 2% of L-α-phosphatidylcholine from soybean dissolved, by sonication, in n-dodecane. Immediately after this application, 150 μL of Tris buffer containing 5% DMSO was added to the receiving well. The receiving well was mounted on the donor plate, keeping the underside of the membrane in contact with the donor solution. The assembled donor–acceptor plates were incubated under constant stirring (3 g) at 25 °C for approximately 16 h. Subsequently, the quantity of each compound presented at the receptor solution (150 μL) was determined by UV/VIS spectrophotometrically.

[2] = tested on: T. cruzi (Y strain) trypomastigotes; assay: Anti-trypomastigote assay (resazurin viability); format: cell-based, Trypanosoma cruzi; details: for IC50: read-out: IC50 trypo
Description: (§1) The cells and parasites were kept at 37 °C in a humidified atmosphere containing 5% CO2.
Benznidazole was used as the standard drug. The optical density was determined in FilterMax F5 (Molecular Devices) at 570 nm[38].
(§2) IC50 and CC50 values were calculated using a sigmoid dose-response curves in Graph–Pad Prism 5.0 software (GraphPad Software - San Diego, CA, USA). For the mechanism of action studies one-way ANOVA (Turkey’s Multiple Comparison test) was used for significance (p < 0.05). The assays were repeated at least twice and the samples were tested in duplicate.

[3] = Cytotoxicity against mammalian cells (MTT); format: cell-based, Murine; details: mouse, NCTC clone L929 cells
Description: Rhesus monkey kidney cells (LLC-MK2-ATCC CCL 7) were used for the maintenance of trypomastigotes of T. cruzi (Y strain) using RPMI-1640 medium supplemented with 2% fetal bovine serum (FBS). The cells and parasites were kept at 37 °C in a humidified atmosphere containing 5% CO2. Peritoneal macrophages, used in the experiments of anti-amastigote assay, were obtained by washing the peritoneal cavity of BALB/c mice, with RPMI-1640 medium supplemented with 10% FBS and kept at 37 °C in a 5% CO2 humidified incubator. Murine conjunctive cells (NCTC clone 929, ATCC) and LLC-MK2 were kept in RPMI-1640 supplemented with 10% FBS at the same conditions described above.
NCTC cells-clone L929 (6 × 10^4 cells/well) were seeded and incubated with tested compounds (200–1.56 µM) for 48 h at 37 °C in a 5% CO2 humidified incubator. Cytotoxic concentration (CC50) was determined by MTT assay. Optical density was determined in FilterMax F5 (Molecular Devices) at 570 nm. Selectivity Index (SI) was determined using the following ratio: CC50 against NCTC cells/IC50 against parasites.
as §2

PAMPA-BBB model = format: in vitro ADME
Description: The methodology herein applied was similar to that described in the previous section, however with the purpose of assessing the permeability of the compounds through the blood brain barrier (BBB). Thus, stock solutions (10 mM) of each test compound were prepared in DMSO and diluted with phosphate buffered saline (PBS) at pH 7.4. The final concentration of donor solutions was 300 μM and DMSO of 5%. Artificial membrane lipid solutions were prepared daily by dissolving, in n-dodecane, the porcine brain lipid extracted as described[40] at the final concentration of 2% (m/v). PAMPA procedure was similar to that described in the previous section although, in PAMPA-BBB, the donor and acceptor solutions were prepared using phosphate buffer saline (PBS) at pH 7.4 and the Papp was obtained through the equation previously reported.

[4] = tested on: T. cruzi intracellular amastigotes; assay: Anti-amastigote assay in infected peritoneal macrophages (infection index); format: cell-based, Trypanosoma cruzi; details: 48 h, read-out: IC50 Ama
Description: as §1
The cells were plated on a 16-well chamber slide – NUNC (Thermo Fisher Scientific) at 1 × 10^5 cells/well and incubated for 24 h at 37 °C in a 5% CO2 humidified incubator. […] Tested compounds were subsequently incubated with infected macrophages for 48 h at 37 °C (5% CO2 humidified incubator) in different nontoxic concentrations. Benznidazole was used as standard drug. At the end of the assay, slides were fixed with MeOH and stained with Giemsa, counted under a light microscope (EVOS M5000, Thermo, USA) and IC50 values were determined by the infection index.
as §2

[5] = PAMPA intestinal model, 300 µM donor, Tris buffer, 25 °C, 16 h, read-out: Papp GIT
[6] = Trypanosoma cruzi, T. cruzi trypomastigotes, 24 h incubation, resazurin
[7] = PAMPA-BBB model, 300 µM donor, PBS pH 7.4, read-out: Papp BBB
[8] = Trypanosoma cruzi, Peritoneal macrophage, in Mus musculus, intracellular amastigotes in BALB/c peritoneal macrophages

| Molecule | Papp at 16 h, 300 µM [1, 5] | IC50 [2, 6] | CC50 at 48 h [3] | Papp at 16 h, 300 µM (PAMPA-BBB model; [7]) | IC50 [4, 8] | Papp at 16 h, 300 µM ([1]; PAMPA) | Papp at 16 h, 300 µM (PAMPA-BBB model; PAMPA, pH 7.4) | IC50 ([2]; T. cruzi trypomastigotes, 24 h incubation, resazurin) | IC50 ([4]; intracellular amastigotes in BALB/c peritoneal macrophages) | IC50 ([2]; Trypanosoma cruzi, 24 h) | IC50 ([4]; Trypanosoma cruzi, Peritoneal macrophage, in Mus musculus) | anti-T. cruzi activity (in words) ([2]; Table 1 assays) | fraction unbound at 16 h, 300 µM [1] |
| --- | --- | --- | --- | --- | --- | --- | --- | --- | --- | --- | --- | --- | --- |
| COc1cc(C=O)ccc1O [compound 2, vanillin] | 1.41 ×10⁻⁶ cm/s | > 100 µM | > 200 µM | 6.15 ×10⁻⁶ cm/s | 5.5 ± 0.6 µM | – | – | – | – | – | – | – | – |
| C=CCc1cc(C=O)cc(OC)c1O [2d, 3-allyl-4-hydroxy-5-methoxy-benzaldehyde] | – | > 100 µM | > 200 µM | – | > 100 µM | 1.57 ×10⁻⁶ cm/s | 1.25 ×10⁻⁶ cm/s | – | – | – | – | – | – |
| C=CCc1cc(/C=C/C)cc(OC)c1O [4d, 2-allyl-6-methoxy-4-[(E)-prop-1-enyl]phenol] | – | 21.2 ± 3.7 µM | > 200 µM | – | 10.4 ± 0.9 µM | 1.2 ×10⁻⁶ cm/s | 0.74 ×10⁻⁶ cm/s | – | – | – | – | – | – |
| C=CCc1ccc(OC(C)=O)c(OC)c1 [5b, (4-allyl-2-methoxy-phenyl) acetate] | – | > 100 µM | > 200 µM | – | > 100 µM | 2.81 ×10⁻⁶ cm/s | 2.28 ×10⁻⁶ cm/s | – | – | – | – | – | – |
| C/C=C/c1cc(OC)c2c(c1)[C@H](C)[C@@H](c1ccc(O)c(OC)c1)O2 [compound 1, Licarin A] | – | 54.3 ± 8.9 µM | > 200 µM | – | > 100 µM | 0.85 ×10⁻⁶ cm/s | 2.37 ×10⁻⁶ cm/s | – | – | – | – | – | – |
| isoeugenol [compound 4] | – | – | – | – | – | – | – | 50.7 ± 17.4 µM | > 100 µM | – | – | – | – |
| COc1cc(CO)ccc1O [compound 3, vanillyl alcohol] | – | > 100 µM | > 200 µM | – | > 100 µM | 0.18 ×10⁻⁶ cm/s | 0.64 ×10⁻⁶ cm/s | – | – | – | – | – | – |
| C=CCc1ccc(OC)c(OC)c1 [5a, 4-allyl-1,2-dimethoxy-benzene] | 2.35 ×10⁻⁶ cm/s | – | > 200 µM | 1.56 ×10⁻⁶ cm/s | – | – | – | – | – | > 100 µM | > 100 µM | – | – |
| C=CCc1cc(CC=C)c(O)c(OC)c1 [5d, 2,4-diallyl-6-methoxy-phenol] | – | > 100 µM | > 200 µM | – | > 100 µM | 0.65 ×10⁻⁶ cm/s | 0.32 ×10⁻⁶ cm/s | – | – | – | – | – | – |
| C/C=C/c1cc(OC)c2c(c1)[C@H](C)[C@@H](c1ccc(OC)c(OC)c1)O2 [1a, (2S,3 S)-2-(3,4-dimethoxyphenyl)-7-methoxy-3-methyl-5-[(E)-prop-1-enyl]-2,3-dihydrobenzo-furan] | – | 28 ± 10.2 µM | > 200 µM | – | > 100 µM | 0.42 ×10⁻⁶ cm/s | 4.26 ×10⁻⁶ cm/s | – | – | – | – | – | – |
| C=CCOc1ccc(/C=C/C)cc1OC [4c, 1-allyloxy-2-methoxy-4-[(E)-prop-1-enyl]benzene] | – | > 100 µM | > 200 µM | – | > 100 µM | 0.13 ×10⁻⁶ cm/s | 0.2 ×10⁻⁶ cm/s | – | – | – | – | did not display activity | – |
| C/C=C/c1cc(OC)c2c(c1)[C@H](C)[C@@H](c1ccc(OC(C)=O)c(OC)c1)O2 [1b, [2-methoxy-4-[(2S,3 S)-7-methoxy-3-methyl-5-[(E)-prop-1-enyl]-2,3-dihydrobenzofuran-2-yl]phenyl] acetate] | – | 17.9 ± 2.9 µM | 67.2 ± 24.6 µM | – | > 100 µM | 1.02 ×10⁻⁶ cm/s | 0.34 ×10⁻⁶ cm/s | – | – | – | – | – | – |
| COc1ccc(CO)cc1OC [3a, (3,4-dimethoxyphenyl)methanol] | 2.22 ×10⁻⁶ cm/s | > 100 µM | > 200 µM | 2.18 ×10⁻⁶ cm/s | > 100 µM | – | – | – | – | – | – | – | – |
| C=CCOc1ccc(CC=C)cc1OC [5c, 4-allyl-1-allyloxy-2-methoxy-benzene] | – | > 100 µM | > 200 µM | – | > 100 µM | 1.21 ×10⁻⁶ cm/s | 0.32 ×10⁻⁶ cm/s | – | – | – | – | – | – |
| C=CCOc1ccc(C=O)cc1OC [2c, 4-allyloxy-3-methoxy-benzaldehyde] | – | > 100 µM | > 200 µM | – | > 100 µM | 1.6 ×10⁻⁶ cm/s | 5.35 ×10⁻⁶ cm/s | – | – | – | – | – | – |
| C/C=C/c1ccc(OC(C)=O)c(OC)c1 [4b, [2-methoxy-4-[(E)-prop-1-enyl]phenyl] acetate] | – | 54.6 ± 10.2 µM | > 200 µM | – | > 100 µM | 15 ×10⁻⁶ cm/s | 1.32 ×10⁻⁶ cm/s | – | – | – | – | – | < 0.1 |
| C=CCOc1ccc(CO)cc1OC [3c, (4-allyloxy-3-methoxy-phenyl)methanol] | – | > 100 µM | > 200 µM | – | > 100 µM | 1.9 ×10⁻⁶ cm/s | 4.74 ×10⁻⁶ cm/s | – | – | – | – | – | – |
| COc1cc(C=O)ccc1OC(C)=O [2b, (4-formyl-2-methoxy-phenyl) acetate] | – | > 100 µM | > 200 µM | – | 5.6 ± 0.3 µM | 17.4 ×10⁻⁶ cm/s | 4.7 ×10⁻⁶ cm/s | – | – | – | – | – | < 0.1 |
| C=CCOc1ccc([C@H]2Oc3c(OC)cc(/C=C/C)cc3[C@@H]2C)cc1OC [1c, (2S,3 S)-2-(4-allyloxy-3-methoxy-phenyl)-7-methoxy-3-methyl-5-[(E)-prop-1-enyl]-2,3-dihydrobenzofuran] | – | > 100 µM | > 200 µM | – | > 100 µM | 0.43 ×10⁻⁶ cm/s | 0.24 ×10⁻⁶ cm/s | – | – | – | – | – | – |
| O=C(Cn1ccnc1[N+](=O)[O-])NCc1ccccc1 [Bnz, benznidazole, reference compound] | – | 5.5 ± 0.9 µM | > 200 µM | – | 18.7 ± 2.6 µM | – | – | – | – | – | – | – | – |
